Test results reported in patent publication US9029368B2, “3,7-disubstituted octahydro-2H-pyrido[4,3-E][1,3]oxazin-2-one antibiotics” (Actelion Pharmaceuticals Ltd., priority 2011, dated 2015).
Converted amounts (≈) assume the structure as drawn.

Test system: S. aureus 29213
Test: Bacterial growth minimal inhibitory concentrations (microdilution in cation-adjusted Mueller-Hinton Broth, CLSI M7-A7)
Type: cell-based
Conditions: Staphylococcus aureus, 29213, microdilution method
Protocol: Bacterial Growth Minimal Inhibitory Concentrations: Minimal inhibitory concentrations (MICs; mg/l) were determined in cation-adjusted Mueller-Hinton Broth by a microdilution method following the description given in “Methods for Dilution Antimicrobial Susceptibility Tests for Bacteria that Grow Aerobically”, Approved standard, 7th ed., Clinical and Laboratory Standards Institute (CLSI) Document M7-A7, Wayne, Pa., USA, 2006. All Example compounds were tested against several Gram positive and Gram negative bacteria.

Row | MIC | SMILES
1 | 0.125 µg/mL (≈ 0.245 µM) | COc1ccc2ccc(F)c(C(O)CN3CC[C@@H]4CN(c5ccc6c(c5)OCCO6)C(=O)O[C@H]4C3)c2n1 (mixture of isomers) [Example 16, (4aR*,8aR*)-3-(2,3-dihydro-benzo[1,4]dioxin-6-yl)-7-[(2RS)-2-(7-fluoro-2-methoxy-quinolin-8-yl)-2-hydroxy-ethyl]-octahydro-pyrido[4,3-e][1,3]oxazin-2-one]
2 | 0.063 µg/mL (≈ 0.123 µM) | COc1cnc2ccc(F)c(C(O)CN3CC[C@@H]4CN(c5ccc6c(c5)OCCO6)C(=O)O[C@H]4C3)c2n1 (mixture of isomers) [Example 17, (4aR*,8aR*)-3-(2,3-dihydro-benzo[1,4]dioxin-6-yl)-7-[(2RS)-2-(6-fluoro-3-methoxy-quinoxalin-5-yl)-2-hydroxy-ethyl]-octahydro-pyrido[4,3-e][1,3]oxazin-2-one]
3 | 0.063 µg/mL (≈ 0.128 µM) | COc1cnc2cccc(C(O)CN3CC[C@@H]4CN(c5ccc6c(c5)OCCO6)C(=O)O[C@H]4C3)c2n1 (mixture of isomers) [Example 18, (4aR*,8aR*)-3-(2,3-dihydro-benzo[1,4]dioxin-6-yl)-7-[(2RS)-2-hydroxy-2-(3-methoxy-quinoxalin-5-yl)-ethyl]-octahydro-pyrido[4,3-e][1,3]oxazin-2-one]
4 | ≤ 0.031 µg/mL | COc1ccc2ncc(F)c(CCN3CC[C@@H]4CN(c5ccc6c(n5)NC(=O)CO6)C(=O)O[C@H]4C3)c2n1 (racemic) [Example 19, rac-(4aR*,8aR*)-7-[2-(3-fluoro-6-methoxy-[1,5]naphthyridin-4-yl)-ethyl]3-(3-oxo-3,4-dihydro-2H-pyrido[3,2-b][1,4]oxazin-6-yl)-octahydro-pyrido[4,3-e][1,3]oxazin-2-one]
5 | ≤ 0.031 µg/mL | COc1ccc2ncc(F)c(CCN3CC[C@@H]4CN(c5cnc6c(c5)OCCO6)C(=O)O[C@H]4C3)c2n1 (racemic) [Example 22, rac-(4aR*,8aR*)-3-(2,3-dihydro-[1,4]dioxino[2,3-b]pyridin-7-yl)-7-[2-(3-fluoro-6-methoxy-[1,5]naphthyridin-4-yl)-ethyl]-octahydro-pyrido[4,3-e][1,3]oxazin-2-one]
6 | ≤ 0.031 µg/mL | COc1ccc2ncc(F)c(CCN3CC[C@@H]4CN(c5cc6c(nn5)OCCO6)C(=O)O[C@H]4C3)c2n1 (racemic) [Example 23, rac-(4aR*,8aR*)-3-(6,7-dihydro-[1,4]dioxino[2,3-c]pyridazin-3-yl)-7-[2-(3-fluoro-6-methoxy-[1,5]naphthyridin-4-yl)-ethyl]-octahydro-pyrido[4,3-e][1,3]oxazin-2-one]
7 | ≤ 0.031 µg/mL | COc1ccc2ncc(F)c(CCN3CC[C@@H]4CN(c5cc6c(cn5)OCCO6)C(=O)O[C@H]4C3)c2n1 (racemic) [Example 24, rac-(4aR*,8aR*)-3-(2,3-dihydro-[1,4]dioxino[2,3-c]pyridin-7-yl)-7-[2-(3-fluoro-6-methoxy-[1,5]naphthyridin-4-yl)-ethyl]-octahydro-pyrido[4,3-e][1,3]oxazin-2-one]

The next lines start with the compound.

Row | SMILES | MIC
8 | COc1ccc2ncc(F)c([C@@H](O)CN3CC[C@@H]4CN(c5ccc6c(c5)OCCO6)C(=O)O[C@H]4C3)c2n1 (mixture of isomers) [Example 13, (4aR*,8aR*)-3-(2,3-dihydro-benzo[1,4]dioxin-6-yl)-7-[(R)-2-(3-fluoro-6-methoxy-[1,5]naphthyridin-4-yl)-2-hydroxy-ethyl]-octahydro-pyrido[4,3-e][1,3]oxazin-2-one] | 0.063 µg/mL
9 | COc1ccc2nccc(C(O)CN3CC[C@@H]4CN(c5ccc6c(c5)OCCO6)C(=O)O[C@H]4C3)c2n1 (mixture of isomers) [Example 3, (4aR*,8aR*)-3-(2,3-dihydro-benzo[1,4]dioxin-6-yl)-7-[(2RS)-2-hydroxy-2-(6-methoxy-[1,5]naphthyridin-4-yl)-ethyl]-octahydro-pyrido[4,3-e][1,3]oxazin-2-one] | 0.125 µg/mL (≈ 0.254 µM)
10 | COc1ccc2nccc(CCN3CC[C@@H]4CN(c5ccc6c(c5)OCCO6)C(=O)O[C@H]4C3)c2n1 (racemic) [Example 4, rac-(4aR*,8aR*)-3-(2,3-dihydro-benzo[1,4]dioxin-6-yl)-7-[2-(6-methoxy-[1,5]naphthyridin-4-yl)-ethyl]-octahydro-pyrido[4,3-e][1,3]oxazin-2-one] | 0.063 µg/mL (≈ 0.132 µM)
11 | COc1ccc2ncc(F)c(CCN3CC[C@@H]4CN(c5ccc6c(c5)NC(=O)CO6)C(=O)O[C@H]4C3)c2n1 (racemic) [Example 5, rac-(4aR*,8aR*)-7-[2-(3-fluoro-6-methoxy-[1,5]naphthyridin-4-yl)-ethyl]3-(3-oxo-3,4-dihydro-2H-benzo[1,4]oxazin-6-yl)-octahydro-pyrido[4,3-e][1,3]oxazin-2-one] | ≤ 0.031 µg/mL
12 | COc1ccc2ncc(F)c(C(O)CN3CC[C@@H]4CN(c5ccc6c(c5)OCCO6)C(=O)O[C@H]4C3)c2n1 (mixture of isomers) [Example 6, (4aR*,8aR*)-3-(2,3-dihydro-benzo[1,4]dioxin-6-yl)-7-[(2RS)-2-(3-fluoro-6-methoxy-[1,5]naphthyridin-4-yl)-2-hydroxy-ethyl]-octahydro-pyrido[4,3-e][1,3]oxazin-2-one] | 0.063 µg/mL (≈ 0.123 µM)
13 | COc1ccc2ncc(F)c(CCN3CC[C@@H]4CN(c5ccc6c(c5)NC(=O)CS6)C(=O)O[C@H]4C3)c2n1 (racemic) [Example 7, rac-(4aR*,8aR*)-7-[2-(3-fluoro-6-methoxy-[1,5]naphthyridin-4-yl)-ethyl]-3-(3-oxo-3,4-dihydro-2H-benzo[1,4]thiazin-6-yl)-octahydro-pyrido[4,3-e][1,3]oxazin-2-one] | ≤ 0.031 µg/mL
14 | COc1ccc2ccc(=O)n(CCN3CC[C@@H]4CN(c5ccc6c(c5)OCCO6)C(=O)O[C@H]4C3)c2c1 (racemic) [Example 8, rac-(4aR*,8aR*)-3-(2,3-dihydro-benzo[1,4]dioxin-6-yl)-7-[2-(7-methoxy-2-oxo-2H-quinolin-1-yl)-ethyl]-octahydro-pyrido[4,3-e][1,3]oxazin-2-one] | ≤ 0.031 µg/mL
15 | COc1ccc2ncc(=O)n(CCN3CC[C@@H]4CN(c5ccc6c(c5)OCCO6)C(=O)O[C@H]4C3)c2c1 (racemic) [Example 9, rac-(4aR*,8aR*)-3-(2,3-dihydro-benzo[1,4]dioxin-6-yl)-7-[2-(7-methoxy-2-oxo-2H-quinoxalin-1-yl)-ethyl]-octahydro-pyrido[4,3-e][1,3]oxazin-2-one] | ≤ 0.031 µg/mL
16 | COc1ccc2ccc(=O)n(CCN3CC[C@@H]4CN(c5ccc6c(c5)OCCO6)C(=O)O[C@H]4C3)c2n1 (racemic) [Example 10, rac-(4aR*,8aR*)-3-(2,3-dihydro-benzo[1,4]dioxin-6-yl)-7-[2-(7-methoxy-2-oxo-2H-[1,8]naphthyridin-1-yl)-ethyl]-octahydro-pyrido[4,3-e][1,3]oxazin-2-one] | ≤ 0.031 µg/mL
17 | COc1ccc2ncc(=O)n(CCN3CC[C@@H]4CN(c5ccc6c(c5)OCCO6)C(=O)O[C@H]4C3)c2n1 (racemic) [Example 11, rac-(4aR*,8aR*)-3-(2,3-dihydro-benzo[1,4]dioxin-6-yl)-7-[2-(6-methoxy-3-oxo-3H-pyrido[2,3-b]pyrazin-4-yl)-ethyl]-octahydro-pyrido[4,3-e][1,3]oxazin-2-one] | ≤ 0.031 µg/mL
18 | COc1cnc2ccc(=O)n(CCN3CC[C@@H]4CN(c5ccc6c(c5)OCCO6)C(=O)O[C@H]4C3)c2n1 (racemic) [Example 12, rac-(4aR*,8aR*)-3-(2,3-dihydro-benzo[1,4]dioxin-6-yl)-7-[2-(3-methoxy-6-oxo-6H-pyrido[2,3-b]pyrazin-5-yl)-ethyl]-octahydro-pyrido[4,3-e][1,3]oxazin-2-one] | ≤ 0.031 µg/mL
